{
  "source": "PubChem BioAssay AID1963438",
  "about": "(Molecular Pharmacology Branch, DTP, NCI, 2024)",
  "tested_on": "NCI-H510 multicellular tumor spheroid growth, % test/control",
  "test": "Anticancer human tumor NCI-H510 cell line growth inhibition [Asc];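 also: spheroids exposed to agents for 7 days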;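 as to viability, T/C: 100% = DMSO vehicle control wells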",
  "settings": "for IC50: curve of first compound; for viability, T/C: stronger effect = lower value",
  "procedure,_shortened": "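Complex spheroids combining tumor cells with HUVEC endothelial cells and human MSCs, at 37 degrees C, 5% CO2; agents tested alone or combined, half-log dilutions from at or near clinical Cmax, or 10 microM if Cmax unknown.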",
  "note": "Several values for one entry are separate records, joined by “and”; a condition that tells them apart may be missing. Equal entries are not always repeated.",
  "data": [
    {"smiles": "Cn1ncnc1[C@H]1c2n[nH]c(=O)c3cc(F)cc(c23)N[C@@H]1c1ccc(F)cc1", "note": "+ CCN1C(C(=O)NC23CCC(C(=O)O)(CC2)CC3)C(c2cccc(Cl)c2F)C2(C(=O)Nc3cc(Cl)ccc32)C12CCCCC2", "values": [
      {"measurement": "IC50", "setting": "second compound 0.03 µM", "value": 7.83, "unit": "nM"},
      {"measurement": "IC50", "setting": "second compound 0.0949 µM", "value": 9.02, "unit": "nM"},
      {"measurement": "IC50", "setting": "second compound 0.3 µM", "value": 15.6, "unit": "nM"},
      {"measurement": "IC50", "setting": "second compound 0.949 µM", "value": 10.4, "unit": "nM"},
      {"measurement": "IC50", "setting": "second compound 3 µM", "value": 13.4, "unit": "nM"},
      {"measurement": "viability, T/C", "setting": "second compound 0.03 µM, first compound 0.000316 µM", "value": 114, "unit": "%"},
      {"measurement": "viability, T/C", "setting": "second compound 0.03 µM, first compound 0.001 µM", "value": 93.8, "unit": "%"},
      {"measurement": "viability, T/C", "setting": "second compound 0.03 µM, first compound 0.00316 µM", "value": 77.3, "unit": "%"},
      {"measurement": "viability, T/C", "setting": "second compound 0.03 µM, first compound 0.01 µM", "value": 49.5, "unit": "%"},
      {"measurement": "viability, T/C", "setting": "second compound 0.03 µM, first compound 0.0316 µM", "value": 6.92, "unit": "%"},
      {"measurement": "viability, T/C", "setting": "second compound 0.03 µM, first compound 0.1 µM", "value": 18.1, "unit": "%"},
      {"measurement": "viability, T/C", "setting": "second compound 0.0949 µM, first compound 0.000316 µM", "value": 105, "unit": "%"},
      {"measurement": "viability, T/C", "setting": "second compound 0.0949 µM, first compound 0.001 µM", "value": 97.6, "unit": "%"},
      {"measurement": "viability, T/C", "setting": "second compound 0.0949 µM, first compound 0.00316 µM", "value": 95.4, "unit": "%"},
      {"measurement": "viability, T/C", "setting": "second compound 0.0949 µM, first compound 0.01 µM", "value": 45.4, "unit": "%"},
      {"measurement": "viability, T/C", "setting": "second compound 0.0949 µM, first compound 0.0316 µM", "value": 14.7, "unit": "%"},
      {"measurement": "viability, T/C", "setting": "second compound 0.0949 µM, first compound 0.1 µM", "value": 10.9, "unit": "%"},
      {"measurement": "viability, T/C", "setting": "second compound 0.3 µM, first compound 0.000316 µM", "value": 104, "unit": "%"},
      {"measurement": "viability, T/C", "setting": "second compound 0.3 µM, first compound 0.001 µM", "value": 128, "unit": "%"},
      {"measurement": "viability, T/C", "setting": "second compound 0.3 µM, first compound 0.00316 µM", "value": 96.6, "unit": "%"},
      {"measurement": "viability, T/C", "setting": "second compound 0.3 µM, first compound 0.01 µM", "value": 75.8, "unit": "%"},
      {"measurement": "viability, T/C", "setting": "second compound 0.3 µM, first compound 0.0316 µM", "value": 9.76, "unit": "%"},
      {"measurement": "viability, T/C", "setting": "second compound 0.3 µM, first compound 0.1 µM", "value": 5.7, "unit": "%"},
      {"measurement": "viability, T/C", "setting": "second compound 0.949 µM, first compound 0.000316 µM", "value": 92.5, "unit": "%"},
      {"measurement": "viability, T/C", "setting": "second compound 0.949 µM, first compound 0.001 µM", "value": 118, "unit": "%"},
      {"measurement": "viability, T/C", "setting": "second compound 0.949 µM, first compound 0.00316 µM", "value": 100, "unit": "%"},
      {"measurement": "viability, T/C", "setting": "second compound 0.949 µM, first compound 0.01 µM", "value": 50.9, "unit": "%"},
      {"measurement": "viability, T/C", "setting": "second compound 0.949 µM, first compound 0.0316 µM", "value": 13.4, "unit": "%"},
      {"measurement": "viability, T/C", "setting": "second compound 0.949 µM, first compound 0.1 µM", "value": 7.16, "unit": "%"},
      {"measurement": "viability, T/C", "setting": "second compound 3 µM, first compound 0.000316 µM", "value": 109, "unit": "%"},
      {"measurement": "viability, T/C", "setting": "second compound 3 µM, first compound 0.001 µM", "value": 88.8, "unit": "%"},
      {"measurement": "viability, T/C", "setting": "second compound 3 µM, first compound 0.00316 µM", "value": 102, "unit": "%"},
      {"measurement": "viability, T/C", "setting": "second compound 3 µM, first compound 0.01 µM", "value": 64, "unit": "%"},
      {"measurement": "viability, T/C", "setting": "second compound 3 µM, first compound 0.0316 µM", "value": 6.31, "unit": "%"},
      {"measurement": "viability, T/C", "setting": "second compound 3 µM, first compound 0.1 µM", "value": 10.2, "unit": "%"}
    ]},
    {"smiles": "Cn1ncnc1[C@H]1c2n[nH]c(=O)c3cc(F)cc(c23)N[C@@H]1c1ccc(F)cc1", "values": [
      {"measurement": "viability, T/C", "setting": "compound 0.000316 µM", "value": "106% and 114% (2×)"},
      {"measurement": "viability, T/C", "setting": "compound 0.001 µM", "value": "98.2% and 93.5% and 70.4%"},
      {"measurement": "viability, T/C", "setting": "compound 0.00316 µM", "value": "80.9% and 92.1% and 86.5%"},
      {"measurement": "viability, T/C", "setting": "compound 0.01 µM", "value": "23.2% and 96.1% and 24.8%"},
      {"measurement": "viability, T/C", "setting": "compound 0.0316 µM", "value": "14.6% and 83.9% and 22.1%"},
      {"measurement": "viability, T/C", "setting": "compound 0.1 µM", "value": "12.7% and 99.4% and 18.4%"}
    ]},
    {"smiles": "CCN1CCN(Cc2ccc(Nc3ncc(F)c(-c4cc(F)c5nc(C)n(C(C)C)c5c4)n3)nc2)CC1", "note": "+ Cc1c(S(C)(=O)=O)c(-c2cc(F)cc(N3CCN(c4ccc(NS(=O)(=O)c5ccc(NC(CCN6CCC(C(=O)OCCCP(=O)(O)O)CC6)CSc6ccccc6)c(S(=O)(=O)C(F)(F)F)c5)cc4)CC3)c2)c(-c2ccc(Cl)cc2)n1C(C)C", "values": [
      {"measurement": "IC50", "setting": "second compound 0.1 µM", "value": "> 1000", "unit": "nM"},
      {"measurement": "IC50", "setting": "second compound 0.316 µM", "value": "> 1000", "unit": "nM"},
      {"measurement": "IC50", "setting": "second compound 1 µM", "value": 651, "unit": "nM"},
      {"measurement": "IC50", "setting": "second compound 3.16 µM", "value": 640, "unit": "nM"},
      {"measurement": "IC50", "setting": "second compound 10 µM", "value": 408, "unit": "nM"},
      {"measurement": "viability, T/C", "setting": "second compound 0.1 µM, first compound 0.00316 µM", "value": 112, "unit": "%"},
      {"measurement": "viability, T/C", "setting": "second compound 0.1 µM, first compound 0.01 µM", "value": 91.2, "unit": "%"},
      {"measurement": "viability, T/C", "setting": "second compound 0.1 µM, first compound 0.0316 µM", "value": 98, "unit": "%"},
      {"measurement": "viability, T/C", "setting": "second compound 0.1 µM, first compound 0.1 µM", "value": 75.1, "unit": "%"},
      {"measurement": "viability, T/C", "setting": "second compound 0.1 µM, first compound 0.316 µM", "value": 86.1, "unit": "%"},
      {"measurement": "viability, T/C", "setting": "second compound 0.1 µM, first compound 1 µM", "value": 103, "unit": "%"},
      {"measurement": "viability, T/C", "setting": "second compound 0.316 µM, first compound 0.00316 µM", "value": 104, "unit": "%"},
      {"measurement": "viability, T/C", "setting": "second compound 0.316 µM, first compound 0.01 µM", "value": 94.8, "unit": "%"},
      {"measurement": "viability, T/C", "setting": "second compound 0.316 µM, first compound 0.0316 µM", "value": 102, "unit": "%"},
      {"measurement": "viability, T/C", "setting": "second compound 0.316 µM, first compound 0.1 µM", "value": 108, "unit": "%"},
      {"measurement": "viability, T/C", "setting": "second compound 0.316 µM, first compound 0.316 µM", "value": 88.3, "unit": "%"},
      {"measurement": "viability, T/C", "setting": "second compound 0.316 µM, first compound 1 µM", "value": 87.8, "unit": "%"},
      {"measurement": "viability, T/C", "setting": "second compound 1 µM, first compound 0.00316 µM", "value": 98.4, "unit": "%"},
      {"measurement": "viability, T/C", "setting": "second compound 1 µM, first compound 0.01 µM", "value": 90.7, "unit": "%"},
      {"measurement": "viability, T/C", "setting": "second compound 1 µM, first compound 0.0316 µM", "value": 76.2, "unit": "%"},
      {"measurement": "viability, T/C", "setting": "second compound 1 µM, first compound 0.1 µM", "value": 74.3, "unit": "%"},
      {"measurement": "viability, T/C", "setting": "second compound 1 µM, first compound 0.316 µM", "value": 74.9, "unit": "%"},
      {"measurement": "viability, T/C", "setting": "second compound 1 µM, first compound 1 µM", "value": 38.2, "unit": "%"},
      {"measurement": "viability, T/C", "setting": "second compound 3.16 µM, first compound 0.00316 µM", "value": 69.6, "unit": "%"},
      {"measurement": "viability, T/C", "setting": "second compound 3.16 µM, first compound 0.01 µM", "value": 93, "unit": "%"},
      {"measurement": "viability, T/C", "setting": "second compound 3.16 µM, first compound 0.0316 µM", "value": 107, "unit": "%"},
      {"measurement": "viability, T/C", "setting": "second compound 3.16 µM, first compound 0.1 µM", "value": 112, "unit": "%"},
      {"measurement": "viability, T/C", "setting": "second compound 3.16 µM, first compound 0.316 µM", "value": 61.2, "unit": "%"},
      {"measurement": "viability, T/C", "setting": "second compound 3.16 µM, first compound 1 µM", "value": 42.9, "unit": "%"},
      {"measurement": "viability, T/C", "setting": "second compound 10 µM, first compound 0.00316 µM", "value": 104, "unit": "%"},
      {"measurement": "viability, T/C", "setting": "second compound 10 µM, first compound 0.01 µM", "value": 102, "unit": "%"},
      {"measurement": "viability, T/C", "setting": "second compound 10 µM, first compound 0.0316 µM", "value": 78.2, "unit": "%"},
      {"measurement": "viability, T/C", "setting": "second compound 10 µM, first compound 0.1 µM", "value": 90.4, "unit": "%"},
      {"measurement": "viability, T/C", "setting": "second compound 10 µM, first compound 0.316 µM", "value": 56.9, "unit": "%"},
      {"measurement": "viability, T/C", "setting": "second compound 10 µM, first compound 1 µM", "value": 18.8, "unit": "%"}
    ]}
  ]
}
